The IC50 is the concentration that inhibits the measured activity by half.

One assay relates to HCT 116 cells. In words: CellTiter-Glo assay in HCT 116 cells. Format: cell-based, human. The settings on record: 5 days incubation, 30 μM to 0.0015 μM. The text has this:
CellTiter-Glo™ Assay in HCT 116 Cells
The CellTiter-Glo™ Luminescent Cell Viability Assay (Promega) is a homogeneous method of determining the number of viable cells in culture based on quantitation of the ATP present, which signals the presence of metabolically active cells.
HCT 116 cells (human colon carcinoma, ATCC-No. CCl-247) were cultivated in RPMI 1640 medium with GlutaMAX™ I (Invitrogen, Cat-No. 61870-010), 2.5% Fetal Calf Serum (FCS, Sigma Cat-No. F4135 (FBS)); 100 Units/ml penicillin/100 μg/ml streptomycin (=Pen/Strep from Invitrogen Cat. No. 15140). For the assay the cells were seeded in 384 well plates, 1000 cells per well, in the same medium. The next day the test compounds were added in various concentrations ranging from 30 μM to 0.0015 μM (10 concentrations, 1:3 diluted). After 5 days the CellTiter-Glo™ assay was done according to the instructions of the manufacturer (CellTiter-Glo™ Luminescent Cell Viability Assay, from Promega). In brief: the cell-plate was equilibrated to room temperature for approximately 30 minutes and than the CellTiter-Glo™ reagent was added. The contents were carefully mixed for 15 minutes to induce cell lysis. After 45 minutes the luminescent signal was measured in Victor 2, (scanning multiwell spectrophotometer, Wallac).
1st. Day: • Medium: RPMI 1640 with GlutaMAX™ I (Invitrogen, Cat-Nr. 61870), 5% FCS (Sigma Cat.-No. F4135), Pen/Strep (Invitrogen, Cat No. 15140). • HCT116 (ATCC-No. CCl-247): 1000 cells in 60 μl per well of 384 well plate (Greiner 781098, μClear-plate white) • After seeding incubate plates 24 h at 37° C., 5% CO2
2nd. Day: Induction (Treatment with Compounds, 10 Concentrations):
In order to achieve a final concentration of 30 μM as highest concentration 3.5 μl of 10 mM compound stock solution were added directly to 163 μl media. Then step e) of the dilution procedure described below, was followed.
On the technique in general: Cellular ATP, detected with luciferase, serves as a proxy for viable cell number.

The next assay has as its target T1, Aurora A (Homo sapiens, UniProt O14965).
T1 construct: C-terminally Histidine4 (His4)-tagged Aurora A full-length protein
T1 sequence (O14965 1-403): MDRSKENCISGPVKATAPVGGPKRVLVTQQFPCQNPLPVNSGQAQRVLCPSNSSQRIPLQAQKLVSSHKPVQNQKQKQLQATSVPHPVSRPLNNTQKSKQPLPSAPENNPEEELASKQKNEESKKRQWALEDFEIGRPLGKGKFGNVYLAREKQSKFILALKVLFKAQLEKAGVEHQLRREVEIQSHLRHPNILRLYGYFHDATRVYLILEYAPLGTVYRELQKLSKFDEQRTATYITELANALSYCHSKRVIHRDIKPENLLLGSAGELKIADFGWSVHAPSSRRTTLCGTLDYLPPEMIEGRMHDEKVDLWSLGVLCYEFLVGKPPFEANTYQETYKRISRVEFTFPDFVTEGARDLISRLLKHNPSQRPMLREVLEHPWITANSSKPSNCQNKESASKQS
As to the kind of experiment: IC50 determination for inhibitors of Aurora A (96 MTP-ELISA). Format: biochemical. The note with it: His4-tagged full-length Aurora A 250 ng/ml, PKB-GSK2 200 nM, ATP 4 μM, 90 min at room temperature, read-out: IC50 Aurora A kinase inhibition. Here is the method:
IC50 Determination for Inhibitors of Aurora A
• Aurora A is a serine threonine kinase involved in spindle assembly and chromosome segregation.
The assay is a typically ELISA-type assay where biotinylated substrate (PKB-GSK2) is phosphorylated. Phosphorylation is detected by peroxidase (POD) labelled polyclonal antibody (PAK<M-Ig>S-IgG-POD) and phosphopeptide monoclonal antibody (Mab) (MAK<P-GSK>M-27E5-IgG). The assay is validated for IC50-determination.
Method • This assay is performed in 96-well format for IC50 determination with 5 samples (each with 8 concentrations by twofold testing), 100 μl incubation volume and the following plate layout: […]
(In general: ELISA stands for enzyme-linked immunosorbent assay.)

`Cc1cc(Nc2nn(C(C)C)c(=O)c3c(N4CCOCC4)cccc23)n[nH]1` [Example F-3, 2-Isopropyl-4-(5-methyl-1H-pyrazol-3-ylamino)-8-morpholino-2H-phthalazin-1-one]: the IC50 lay in the range of 100 to 10000 nM with HCT 116 cells (Homo sapiens, HCT-116, 120 h) and 1 to 100 nM at Aurora A.

Regarding `Cc1cc(Nc2nn(C(C)C)c(=O)c3cc(C(N)=O)ccc23)n[nH]1` [Example N-1, 3-Isopropyl-1-(5-methyl-1H-pyrazol-3-ylamino)-4-oxo-3,4-dihydro-phthalazine-6-carboxylic acid amide], the IC50 with HCT 116 cells (Homo sapiens, HCT-116, 120 h) lay within 100 to 10000 nM; at Aurora A, 1 to 100 nM.

In the assay with HCT 116 cells (Homo sapiens, HCT-116, 120 h), `COCC(=O)Nc1ccc(-n2nc(Nc3cc(C)[nH]n3)c3ccccc3c2=O)cc1` [Example T-2, 2-Methoxy-N-{4-[4-(5-methyl-1H-pyrazol-3-ylamino)-1-oxo-1H-phthalazin-2-yl]-phenyl}-acetamide] displayed an IC50 of 100 to 10000 nM.

In turn, `Cc1cc(Nc2nn(CC(C)C)c(=O)c3ccccc23)n[nH]1` [Example A-4, 2-Isobutyl-4-(5-methyl-1H-pyrazol-3-ylamino)-2H-phthalazin-1-one] displayed a concentration for half-maximal inhibition (IC50) in the assay on HCT 116 cells (Homo sapiens, HCT-116, 120 h) of 100 to 10000 nM.

`Cc1cc(Nc2nn(-c3ccc(C(C)(C)C)cc3)c(=O)c3ccc(Br)cc23)[nH]n1` [Example ZB-6, 6-Bromo-2-(4-tert-butyl-phenyl)-4-(5-methyl-2H-pyrazol-3-ylamino)-2H-phthalazin-1-one] returned an IC50 in the assay with HCT 116 cells (Homo sapiens, HCT-116, 120 h) of 100 to 10000 nM.

As to `Cc1cc(Nc2nn(C(C)C)c(=O)c3cc(N(C)Cc4cccnc4)ccc23)n[nH]1` [Example I-3, 2-Isopropyl-4-(5-methyl-1H-pyrazol-3-ylamino)-7-(methyl-pyridin-3-ylmethyl-amino)-2H-phthalazin-1-one], the IC50 lay within 100 to 10000 nM in the assay on HCT 116 cells (Homo sapiens, HCT-116, 120 h) and 1 to 100 nM on Aurora A.

Take `Cc1cc(Nc2nn(C(C)C)c(=O)c3ccc(F)cc23)n[nH]1` [Example E-3, 6-Fluoro-2-isopropyl-4-(5-methyl-1H-pyrazol-3-ylamino)-2H-phthalazin-1-one]: in the assay with HCT 116 cells (Homo sapiens, HCT-116, 120 h), the concentration for half-maximal inhibition (IC50) is 100 to 10000 nM.

For the compound `CCOC(=O)N(C)c1ccc(-n2nc(Nc3cc(C)[nH]n3)c3ccccc3c2=O)cc1` [Example Y-3, Methyl-{4-[4-(5-methyl-1H-pyrazol-3-ylamino)-1-oxo-1H-phthalazin-2-yl]-phenyl}-carbamic acid ethyl ester], the IC50 in the assay on HCT 116 cells (Homo sapiens, HCT-116, 120 h) was 100 to 10000 nM.

In the assay on HCT 116 cells (Homo sapiens, HCT-116, 120 h), `Cc1cc(Nc2nn(C(C)C)c(=O)c3cc(SCCN4CCOCC4)ccc23)n[nH]1` [Example H-3, 2-Isopropyl-4-(5-methyl-1H-pyrazol-3-ylamino)-7-(2-morpholin-4-yl-ethylsulfanyl)-2H-phthalazin-1-one] had an IC50 of 100 to 10000 nM.

In the assay on HCT 116 cells (Homo sapiens, HCT-116, 120 h), `CSc1ccc(Cn2nc(Nc3cc(C)[nH]n3)c3ccccc3c2=O)cc1` [Example E-12, 4-(5-Methyl-1H-pyrazol-3-ylamino)-2-(4-methylsulfanyl-benzyl)-2H-phthalazin-1-one] came in with an IC50 of 100 to 10000 nM.

As for `CCN(C(C)=O)c1ccc(-n2nc(Nc3cc(C)[nH]n3)c3ccccc3c2=O)cc1` [Example Y-1, N-Ethyl-N-{4-[4-(5-methyl-1H-pyrazol-3-ylamino)-1-oxo-1H-phthalazin-2-yl]-phenyl}-acetamide], the half-maximal inhibitory concentration (IC50) in the assay on HCT 116 cells (Homo sapiens, HCT-116, 120 h) lay in the range of 100 to 10000 nM.

`C=CCn1nc(Nc2cc(C)[nH]n2)c2ccccc2c1=O` [Example E-10, 2-Allyl-4-(5-methyl-1H-pyrazol-3-ylamino)-2H-phthalazin-1-one]: the IC50 in the assay with HCT 116 cells (Homo sapiens, HCT-116, 120 h) was 100 to 10000 nM.

In turn, `Cc1cc(Nc2nn(Cc3ccc(F)c(F)c3)c(=O)c3ccccc23)n[nH]1` [Example A-15, 2-(3,4-Difluoro-benzyl)-4-(5-methyl-1H-pyrazol-3-ylamino)-2H-phthalazin-1-one] yielded a half-inhibitory concentration (IC50) in the assay on HCT 116 cells (Homo sapiens, HCT-116, 120 h) of 100 to 10000 nM.

As to `Cc1cc(Nc2nn(-c3ccc(C(C)(C)C)cc3)c(=O)c3cc(N)ccc23)[nH]n1` [Example ZB-2, 7-Amino-2-(4-tert-butyl-phenyl)-4-(5-methyl-2H-pyrazol-3-ylamino)-2H-phthalazin-1-one], the IC50 in the assay with HCT 116 cells (Homo sapiens, HCT-116, 120 h) lay within 100 to 10000 nM.

Compound `CCOC(=O)N(C)c1ccc2c(Nc3cc(C)[nH]n3)nn(C(C)C)c(=O)c2c1` [Example I-7, [3-Isopropyl-1-(5-methyl-1H-pyrazol-3-ylamino)-4-oxo-3,4-dihydro-phthalazin-6-yl]-methyl-carbamic acid ethyl ester] returned a half-maximal inhibitory concentration (IC50) in the assay with HCT 116 cells (Homo sapiens, HCT-116, 120 h) of 100 to 10000 nM.

`Cc1cc(Nc2nn(CC3CC3)c(=O)c3ccccc23)n[nH]1` [Example E-11, 2-Cyclopropylmethyl-4-(5-methyl-1H-pyrazol-3-ylamino)-2H-phthalazin-1-one] returned an IC50 in the assay with HCT 116 cells (Homo sapiens, HCT-116, 120 h) of 100 to 10000 nM.

In the assay on HCT 116 cells (Homo sapiens, HCT-116, 120 h), `Cc1cc(Nc2nn(C(C)C)c(=O)c3ccc(N4CCOCC4)cc23)n[nH]1` [Example F-2, 2-Isopropyl-4-(5-methyl-1H-pyrazol-3-ylamino)-6-morpholino-2H-phthalazin-1-one] had an IC50 of 100 to 10000 nM.

As to `Cc1cc(Nc2nn(C(C)C)c(=O)c3cc(C(=O)NC(C)C)ccc23)n[nH]1` [Example M-5, 3-Isopropyl-1-(5-methyl-1H-pyrazol-3-ylamino)-4-oxo-3,4-dihydro-phthalazine-6-carboxylic acid isopropylamide], the IC50 in the assay with HCT 116 cells (Homo sapiens, HCT-116, 120 h) is 100 to 10000 nM.

In the case of `Cc1cc(Nc2nn(-c3ccc([S+]([O-])c4ccccc4)cc3)c(=O)c3ccccc23)n[nH]1` (stereo not shown) [Example ZA-2, 2-(4-Benzenesulfinyl-phenyl)-4-(5-methyl-1H-pyrazol-3-ylamino)-2H-phthalazin-1-one], in the assay with HCT 116 cells (Homo sapiens, HCT-116, 120 h), the half-maximal inhibitory concentration (IC50) is 100 to 10000 nM.

Turning to `Cc1cc(Nc2nn(C(C)C)c(=O)c3cc(NS(C)(=O)=O)ccc23)n[nH]1` [Example J-2, N-[3-Isopropyl-1-(5-methyl-1H-pyrazol-3-ylamino)-4-oxo-3,4-dihydro-phthalazin-6-yl]-methanesulfonamide], the 50% inhibitory concentration (IC50) with HCT 116 cells (Homo sapiens, HCT-116, 120 h) was 100 to 10000 nM.

Turning to `Cc1cc(Nc2nn(-c3ccccc3)c(=O)c3ccccc23)[nH]n1` [Example A-1, 4-(5-Methyl-2H-pyrazole-3-ylamino)-phenyl-2H-phthalazin-1-one], in the assay with HCT 116 cells, the midpoint of inhibition, the IC50, lay at 1660 nM.

`Cc1cc(Nc2nn(Cc3cc(F)ccc3F)c(=O)c3ccccc23)n[nH]1` [Example A-13, 2-(2,5-Difluoro-benzyl)-4-(5-methyl-1H-pyrazol-3-ylamino)-2H-phthalazin-1-one] registered an IC50 in the assay on HCT 116 cells (Homo sapiens, HCT-116, 120 h) of 100 to 10000 nM.

The compound `Cc1cc(Nc2nn(-c3ccc(N4CCCC4)cc3)c(=O)c3ccccc23)n[nH]1` [Example U-3, 4-(5-Methyl-1H-pyrazol-3-ylamino)-2-(4-pyrrolidin-1-yl-phenyl)-2H-phthalazin-1-one] displayed an IC50 with HCT 116 cells (Homo sapiens, HCT-116, 120 h) of 100 to 10000 nM.

Compound `Cc1cc(Nc2nn(-c3ccc(N)cc3)c(=O)c3ccccc23)n[nH]1` [Example C-2, 2-(4-Amino-phenyl)-4-(5-methyl-1H-pyrazol-3-ylamino)-2H-phthalazin-1-one] had a 50% inhibitory concentration (IC50) in the assay with HCT 116 cells (Homo sapiens, HCT-116, 120 h) of 100 to 10000 nM.

As for `Cc1cc(Nc2nn(-c3ccc(-c4ccccc4)cc3)c(=O)c3ccccc23)n[nH]1` [Example Q-1, 2-Biphenyl-4-yl-4-(5-methyl-1H-pyrazol-3-ylamino)-2H-phthalazin-1-one], the 50% inhibitory concentration (IC50) with HCT 116 cells (Homo sapiens, HCT-116, 120 h) fell in the range of 10000 to 100000 nM.

Compound `Cc1cc(Nc2nn(-c3ccc(Cl)cc3)c(=O)c3ccccc23)n[nH]1` [Example B-1, 2-(4-Chloro-phenyl)-4-(5-methyl-1H-pyrazol-3-ylamino)-2H-phthalazin-1-one] displayed an IC50 in the assay on HCT 116 cells (Homo sapiens, HCT-116, 120 h) of 100 to 10000 nM.

`CC(=O)Nc1ccc(Cn2nc(Nc3cc[nH]n3)c3ccccc3c2=O)cc1` [Example D-2, N-{4-[1-Oxo-4-(1H-pyrazol-3-ylamino)-1H-phthalazin-2-ylmethyl]-phenyl}-acetamide]: the concentration for half-maximal inhibition (IC50) on Aurora A was determined as 555 nM.

In the assay on HCT 116 cells (Homo sapiens, HCT-116, 120 h), `Cc1cc(Nc2nn(C(C)C)c(=O)c3cc(N(C)S(C)(=O)=O)ccc23)n[nH]1` [Example I-10, N-[3-Isopropyl-1-(5-methyl-1H-pyrazol-3-ylamino)-4-oxo-3,4-dihydro-phthalazin-6-yl]-N-methyl-methanesulfonamide] gave an IC50 of 100 to 10000 nM.

These data come from US7226923B2, “Phthalazinone derivatives” (Hoffman-La Roche Inc., priority 2004, dated 2007).
